Experimental findings from ChEMBL document CHEMBL1128806, “Phosphodiesterase type IV (PDE IV) inhibition. Synthesis and evaluation of a series of 1,3,4-trisubstituted pyrrolidines” (Bioorg Med Chem Lett, 1995) are described below.

The target in one experiment is T1, 3',5'-cyclic-AMP phosphodiesterase 4B (Homo sapiens, UniProt Q07343). Briefly: Inhibition of rolipram binding to Phosphodiesterase 4B.
T1 sequence (Q07343 whole entry): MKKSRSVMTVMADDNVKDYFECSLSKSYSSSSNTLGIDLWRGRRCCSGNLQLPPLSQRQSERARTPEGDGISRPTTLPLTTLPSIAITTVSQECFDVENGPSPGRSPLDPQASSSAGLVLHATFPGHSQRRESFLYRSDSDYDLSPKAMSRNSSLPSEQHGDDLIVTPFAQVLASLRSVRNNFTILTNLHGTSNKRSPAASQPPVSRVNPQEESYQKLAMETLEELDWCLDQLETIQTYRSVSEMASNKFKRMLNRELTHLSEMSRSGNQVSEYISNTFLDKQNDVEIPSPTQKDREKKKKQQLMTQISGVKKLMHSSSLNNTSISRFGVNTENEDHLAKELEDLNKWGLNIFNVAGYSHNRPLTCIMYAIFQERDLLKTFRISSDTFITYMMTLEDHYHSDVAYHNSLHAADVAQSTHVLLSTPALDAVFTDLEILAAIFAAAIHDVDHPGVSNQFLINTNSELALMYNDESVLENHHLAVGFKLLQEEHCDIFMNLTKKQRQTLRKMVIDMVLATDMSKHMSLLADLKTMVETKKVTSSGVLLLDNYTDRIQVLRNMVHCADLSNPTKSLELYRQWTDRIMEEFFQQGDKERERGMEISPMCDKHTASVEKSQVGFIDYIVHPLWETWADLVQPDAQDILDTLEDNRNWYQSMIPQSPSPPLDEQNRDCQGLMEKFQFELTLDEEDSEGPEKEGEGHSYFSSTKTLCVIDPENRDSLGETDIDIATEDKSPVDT
Broadly, the IC50 is the concentration that gives 50% inhibition. Low values mean greater potency, high ones weaker potency. In the case of `COC(=O)N1C[C@@H](C(C)=O)[C@H](c2ccc(OC)c(OC3CCCC3)c2)C1`, the IC50 is 320 nM.

A further experiment concerns the target T1, 3',5'-cyclic-AMP phosphodiesterase 4B. Briefly: Ability to inhibit the catalytic activity of human Phosphodiesterase 4B (PDE IVB).
Broadly, the Ki is the equilibrium dissociation constant of an inhibitor or competing ligand from its target. Compound `COc1ccc([C@@H]2CN(C(=O)OC(C)(C)C)C[C@H]2CO)cc1OC1CCCC1` gave a Ki of 50 nM. Still for that read-out and setting: for `COC(=O)N1C[C@@H]([N+](=O)[O-])[C@H](c2ccc(OC)c(OC3CCCC3)c2)C1` the value was 60 nM. `COc1ccc([C@@H]2CN(C(=O)OCc3ccccc3)C[C@H]2NS(C)(=O)=O)cc1OC1CCCC1` gave a Ki of 1470 nM.

`COC(=O)N1C[C@@H](C(=O)OC(C)C)[C@H](c2ccc(OC)c(OC3CCCC3)c2)C1` registered a Ki of 2290 nM. Still for that read-out and setting: for `COC(=O)N1C[C@@H](C(=O)OC(C)(C)C)[C@H](c2ccc(OC)c(OC3CCCC3)c2)C1` the value was 4630 nM. Still for that read-out and setting: for `COc1ccc([C@@H]2CN(C(=O)OC(C)(C)C)C[C@H]2NC(=O)OC(C)(C)C)cc1OC1CCCC1` the value was 1570 nM.

The compound `COC(=O)N1C[C@@H](C(C)=O)[C@H](c2ccc(OC)c(OC3CCCC3)c2)C1` gave a Ki of 30 nM.

With `COC(=O)N1C[C@@H](NC(=O)OC(C)(C)C)[C@H](c2ccc(OC)c(OC3CCCC3)c2)C1`, the Ki is 14400 nM. Same read-out and setting: for `CCC(=O)N1C[C@@H](C(=O)OC)[C@H](c2ccc(OC)c(OC3CCCC3)c2)C1` the value was 1130 nM; for `COC(=O)[C@@H]1CN(C(=O)OC(C)(C)C)C[C@H]1c1ccc(OC)c(OC)c1`, 1200 nM; for `COc1ccc([C@@H]2CN(C(=O)OC(C)(C)C)C[C@H]2C(=O)O)cc1OC1CCCC1`, 150 nM. In turn, `COc1ccc([C@@H]2CN(C(=O)OC(C)(C)C)C[C@H]2C(N)=O)cc1OC1CCCC1` had a Ki of 190 nM. On the same count and under the same terms, for `COC[C@@H]1CN(C(=O)OC(C)(C)C)C[C@H]1c1ccc(OC)c(OC2CCCC2)c1` the value was 80 nM. Still for that read-out and setting: for `CCC(=O)[C@@H]1CN(C(=O)OC)C[C@H]1c1ccc(OC)c(OC2CCCC2)c1` the value was 350 nM. `COC(=O)[C@@H]1CN(C(=O)OCc2ccccc2)C[C@H]1c1ccc(OC)c(OC2CCCC2)c1` returned a Ki of 50 nM. For the compound `CCOC(=O)[C@@H]1CN(C(=O)OC)C[C@H]1c1ccc(OC)c(OC2CCCC2)c1`, the inhibition constant (Ki) turned out to be 550 nM.

Consider `COc1ccc([C@@H]2CN(C(=O)OCc3ccccc3)C[C@H]2NS(=O)(=O)c2ccccc2)cc1OC1CCCC1`, for which the Ki is 4420 nM. `COC(=O)N1C[C@@H](C(N)=O)[C@H](c2ccc(OC)c(OC3CCCC3)c2)C1` had a Ki of 1570 nM.

The compound `COc1ccc([C@@H]2CN(C(=O)OCc3ccccc3)C[C@H]2NC(=O)OC(C)(C)C)cc1OC1CCCC1` had a Ki of 290 nM. On the same count and under the same terms, for `COC(=O)N1C[C@@H](C#N)[C@H](c2ccc(OC)c(OC3CCCC3)c2)C1` the value was 80 nM.

`COC(=O)[C@@H]1CN(C(=O)OC(C)C)C[C@H]1c1ccc(OC)c(OC2CCCC2)c1`: the affinity, expressed as Ki, was 40 nM. `COC(=O)[C@@H]1CN(C(N)=O)C[C@H]1c1ccc(OC)c(OC2CCCC2)c1` showed a Ki of 1480 nM. On the same count and under the same terms, for `COC(=O)[C@@H]1CN(C(=O)OC(C)(C)C)C[C@H]1c1ccc(OC)c(OC2CCCC2)c1` the value was 30 nM. Turning to `COC(=O)[C@@H]1CN(C(=O)OC)C[C@H]1c1ccc(OC)c(OC2CCCC2)c1`, the Ki came to 160 nM. On the same count and under the same terms, for `COC(=O)N1C[C@@H](C(=O)c2ccccc2)[C@H](c2ccc(OC)c(OC3CCCC3)c2)C1` the value was 6030 nM. The compound `COC(=O)N1C[C@@H](C(=O)O)[C@H](c2ccc(OC)c(OC3CCCC3)c2)C1` displayed a Ki of 1880 nM. `COC(=O)[C@@H]1CN(C(=O)OC(C)(C)C)C[C@H]1c1ccc(OC)c(OCCCOc2ccccc2)c1` registered a Ki of 240 nM. In the case of `COC(=O)[C@@H]1CN(C=O)C[C@H]1c1ccc(OC)c(OC2CCCC2)c1`, the affinity, expressed as Ki, was 810 nM.

Compound `COC(=O)[C@@H]1CN(C(N)=S)C[C@H]1c1ccc(OC)c(OC2CCCC2)c1` displayed a Ki of 380 nM.

Test system in the next experiment: not listed separately
Kind of experiment: Inhibition of TNF-alpha secretion from LPS-stimulated human monocytes. In kind it is functional.
The compound `COC(=O)N1C[C@@H](C(C)=O)[C@H](c2ccc(OC)c(OC3CCCC3)c2)C1` showed an IC50 of 457 nM. Regarding `COc1ccc(C2CNC(=O)C2)cc1OC1CCCC1` (configuration not stated) [ROLIPRAM], 320 nM corresponded to half-maximal inhibition (IC50).
